We go through 31 compounds from ChEMBL document CHEMBL2007661, “Compounds: GSK PKIS; Assays: UNC Frye lab” (2012).

Several values for one entry are separate records, joined by “and”; a condition that tells them apart may be missing. Equal entries are not always repeated.

The target in assay [1] is T1, Inhibitor of nuclear factor kappa-B kinase subunit beta (Homo sapiens) (UniProt O14920).
T1 sequence (whole entry): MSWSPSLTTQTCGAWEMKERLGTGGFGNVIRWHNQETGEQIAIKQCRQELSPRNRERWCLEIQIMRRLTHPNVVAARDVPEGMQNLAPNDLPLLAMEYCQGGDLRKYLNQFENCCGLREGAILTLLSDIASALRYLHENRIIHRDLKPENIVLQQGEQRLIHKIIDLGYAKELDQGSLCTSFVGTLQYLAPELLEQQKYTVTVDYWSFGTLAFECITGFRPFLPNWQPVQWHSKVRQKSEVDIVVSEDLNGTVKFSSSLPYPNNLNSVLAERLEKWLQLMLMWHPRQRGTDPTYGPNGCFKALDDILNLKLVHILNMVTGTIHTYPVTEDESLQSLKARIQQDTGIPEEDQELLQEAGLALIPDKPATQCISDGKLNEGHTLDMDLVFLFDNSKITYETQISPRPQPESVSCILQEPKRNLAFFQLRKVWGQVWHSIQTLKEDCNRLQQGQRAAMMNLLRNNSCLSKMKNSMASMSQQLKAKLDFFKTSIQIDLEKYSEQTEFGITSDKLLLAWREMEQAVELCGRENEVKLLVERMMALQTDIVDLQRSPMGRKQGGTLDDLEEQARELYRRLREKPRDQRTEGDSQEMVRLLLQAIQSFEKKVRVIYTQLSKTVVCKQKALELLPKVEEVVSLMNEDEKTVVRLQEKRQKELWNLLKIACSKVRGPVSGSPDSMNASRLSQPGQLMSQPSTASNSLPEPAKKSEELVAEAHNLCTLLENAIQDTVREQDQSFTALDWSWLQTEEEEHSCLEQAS
The settings on record: at 1 µM.

Assay [2] has as its target T2, Tyrosine-protein kinase Mer (Homo sapiens) (UniProt Q12866).
T2 sequence (whole entry): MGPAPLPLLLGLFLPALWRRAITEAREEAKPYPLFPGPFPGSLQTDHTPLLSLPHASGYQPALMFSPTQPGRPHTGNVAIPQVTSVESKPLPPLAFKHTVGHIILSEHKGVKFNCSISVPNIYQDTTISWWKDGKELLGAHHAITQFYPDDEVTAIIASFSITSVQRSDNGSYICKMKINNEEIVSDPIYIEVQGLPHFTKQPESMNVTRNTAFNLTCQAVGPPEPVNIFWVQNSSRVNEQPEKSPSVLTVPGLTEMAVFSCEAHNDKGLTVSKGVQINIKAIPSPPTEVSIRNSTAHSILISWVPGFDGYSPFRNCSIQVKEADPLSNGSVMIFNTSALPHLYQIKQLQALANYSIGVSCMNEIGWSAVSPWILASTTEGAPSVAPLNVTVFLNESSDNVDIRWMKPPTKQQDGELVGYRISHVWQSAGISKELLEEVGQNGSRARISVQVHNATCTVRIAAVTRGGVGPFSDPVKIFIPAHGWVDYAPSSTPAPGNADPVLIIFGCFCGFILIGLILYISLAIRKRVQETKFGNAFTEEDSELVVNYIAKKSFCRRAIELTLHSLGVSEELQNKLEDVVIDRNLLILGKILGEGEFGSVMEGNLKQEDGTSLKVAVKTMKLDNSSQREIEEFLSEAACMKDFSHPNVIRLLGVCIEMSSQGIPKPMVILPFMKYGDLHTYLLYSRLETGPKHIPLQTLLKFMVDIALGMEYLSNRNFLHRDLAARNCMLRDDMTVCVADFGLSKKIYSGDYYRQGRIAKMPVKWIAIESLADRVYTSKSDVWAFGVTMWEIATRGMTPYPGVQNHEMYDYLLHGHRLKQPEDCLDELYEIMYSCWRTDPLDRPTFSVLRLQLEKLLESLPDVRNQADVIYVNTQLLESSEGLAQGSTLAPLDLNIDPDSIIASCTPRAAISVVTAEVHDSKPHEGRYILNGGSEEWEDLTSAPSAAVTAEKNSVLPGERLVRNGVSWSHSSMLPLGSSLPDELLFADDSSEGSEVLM
Conditions: at 10 µM.

The target in assay [3] is T3, Serine/threonine-protein kinase TBK1 (Homo sapiens) (UniProt Q9UHD2).
T3 sequence (whole entry): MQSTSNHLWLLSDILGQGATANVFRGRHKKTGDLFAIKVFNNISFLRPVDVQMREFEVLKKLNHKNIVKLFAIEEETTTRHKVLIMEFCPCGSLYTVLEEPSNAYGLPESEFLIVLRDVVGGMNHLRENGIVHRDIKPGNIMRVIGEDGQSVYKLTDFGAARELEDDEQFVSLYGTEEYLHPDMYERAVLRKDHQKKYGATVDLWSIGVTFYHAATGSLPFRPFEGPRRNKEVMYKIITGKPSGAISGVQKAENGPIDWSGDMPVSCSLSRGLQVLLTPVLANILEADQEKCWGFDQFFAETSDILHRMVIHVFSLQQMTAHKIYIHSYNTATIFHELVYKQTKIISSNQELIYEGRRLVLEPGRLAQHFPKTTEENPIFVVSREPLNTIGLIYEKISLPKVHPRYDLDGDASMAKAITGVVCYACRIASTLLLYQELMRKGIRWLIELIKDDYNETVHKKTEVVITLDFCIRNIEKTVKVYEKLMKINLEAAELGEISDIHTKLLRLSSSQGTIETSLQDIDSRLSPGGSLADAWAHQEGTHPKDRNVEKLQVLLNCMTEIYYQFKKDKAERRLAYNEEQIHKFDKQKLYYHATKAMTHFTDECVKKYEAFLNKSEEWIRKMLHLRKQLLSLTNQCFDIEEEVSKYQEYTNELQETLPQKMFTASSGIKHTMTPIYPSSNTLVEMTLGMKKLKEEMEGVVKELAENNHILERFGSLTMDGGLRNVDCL
Conditions: at 1 µM.

The term inhibition denotes the relative decrease from the control value, in per cent. As for `Cc1cccc(-c2n[nH]cc2-c2ccc3ncccc3n2)n1`, the inhibition was -4% and -1% in assay [1]; -6% in assay [2]; -10% and -6% in assay [3].
In the case of `CS(=O)(=O)CCNCc1ccc(-c2ccc3ncnc(Nc4ccc(OCc5ccccc5)c(Cl)c4)c3c2)o1`, the inhibition in assay [1] was 1%; in assay [2], 89%; in assay [3], -2% and 0%.
As to `CCN1CCC(CC(=O)Nc2n[nH]c3nc(-c4cccs4)c(Br)cc23)CC1`, the inhibition in assay [1] is -4% and -3%; in assay [2], -2%; in assay [3], 8% and 6%.
`COc1cccc(-n2ncc3c(N/N=C/c4ccc(F)cc4)ncnc32)c1`: the inhibition in assay [1] is 1% and -3%; in assay [2] it was -2%; in assay [3], 5% and 11%.
Take `NC(=O)c1sc(-n2cnc3ccc(C(F)(F)F)cc32)cc1OCc1ccccc1Br`: the inhibition is -1% and -4% in assay [1]; 101% in assay [2]; 21% and 4% in assay [3].
In the case of `CCn1cc(-c2ccnc3[nH]ccc23)c(-c2cccc(NC(=O)Nc3ccc(OCc4ccccc4)cc3)c2)n1`, the inhibition is -3% and 0% in assay [1]; -1% in assay [2]; -4% and -1% in assay [3].
Consider `COC(=O)Nc1nc2ccc(S(=O)(=O)c3ccc(NC(=O)Nc4cc(C(F)(F)F)ccc4F)cc3)cc2[nH]1`, for which the inhibition is -6% and -5% in assay [1]; 0% in assay [2]; 0% in assay [3].
As for `CS(=O)(=O)Nc1ccc(-c2cc(-c3ccccc3)cc(C(N)=O)c2N)cc1`, the inhibition in assay [1] was -1% and -4%; in assay [2] it was -2%; in assay [3] it was -2% and -4%.
Consider `COc1ccc(C2=C(N3CCc4ccccc43)C(=O)NC2=O)cc1`, for which the inhibition was -2% and -6% in assay [1]; 3% in assay [2]; 0% and 3% in assay [3].
With `Nc1nonc1-c1nc2cnccc2n1C1CC1`, the inhibition in assay [1] was -3% and 2%; in assay [2] it was 48%; in assay [3], 8%.
As to `COc1cc(Nc2ncc3c(C)nc(-c4cccc(C(F)(F)F)c4)n3n2)cc(OC)c1OC`, the inhibition in assay [1] was -4% and -5%; in assay [2], 6%; in assay [3] it was 53% and 45%.
For `Cc1nn(C)c2cc(N(C)c3ccnc(Nc4cccc(S(N)(=O)=O)c4)n3)ccc12`, the inhibition in assay [1] was -2% and 4%; in assay [2], -8%; in assay [3] it was 1% and 5%.
For the compound `COc1cccc(-n2cnc3c(N/N=C/c4ccncc4)ncnc32)c1`, the inhibition in assay [1] was -3% and 4%; in assay [2], -4%; in assay [3], 4% and -1%.
In the case of `CC1(C)CC(n2cnc(-c3ccc(F)cc3)c2-c2ccnc(N)n2)CC(C)(C)N1`, the inhibition in assay [1] was -3% and -4%; in assay [2], -5%; in assay [3], -5% and -3%.
As for `CN(C)C(=O)O[C@H]1CN[C@H](C#Cc2cc3ncnc(Nc4ccc(OCc5cccc(F)c5)c(Cl)c4)c3s2)C1`, the inhibition is 4% and -2% in assay [1]; 2% in assay [2]; 7% and 8% in assay [3].
For the compound `Nc1nccc(-c2c(-c3ccc(F)cc3)nn3cc(C(F)(F)F)ccc23)n1`, the inhibition in assay [1] is -2% and -4%; in assay [2] it was 88%; in assay [3], -3% and 1%.
Regarding `COc1cc(/C=N/Nc2ncnc3c2cnn3C(C)C)ccc1O`, the inhibition in assay [1] was 4% and 0%; in assay [2], 2%; in assay [3] it was 9% and 8%.
For `Fc1ccc(-c2nn3ccccc3c2-c2ccncc2)cc1`, the inhibition is -5% in assay [1]; -2% in assay [2]; -4% and -8% in assay [3].
`CS(=O)(=O)CCNCc1ccc(-c2ccc3ncnc(Nc4ccc(OCc5ccccc5)c(C(F)(F)F)c4)c3c2)o1`: the inhibition in assay [1] is -5% and -3%; in assay [2], -2%; in assay [3], -3% and -1%.
For `Nc1nc(-c2ccc3c(c2)C(=Cc2cc(Br)c(O)c(Br)c2)C(=O)N3)cs1`, the inhibition in assay [1] was -8%; in assay [2] it was -8%; in assay [3], 7% and 5%.
Take `C[C@@H](Oc1cc(-n2cnc3ccc(OCC4CCN(C)CC4)cc32)sc1C(N)=O)c1ccccc1C(F)(F)F`: the inhibition in assay [1] is -2% and 0%; in assay [2], 5%; in assay [3], 11% and 4%.
For the compound `COc1cc(C)c(N(C)C(=O)CN(C)C)cc1Nc1nc(Nc2cccc(F)c2C(N)=O)c2cc[nH]c2n1`, the inhibition in assay [1] is -3% and -6%; in assay [2] it was 50%; in assay [3], -4% and -3%.
For the compound `CC(C)c1ccc(Nc2nccc(-c3cnn4ncccc34)n2)cc1`, the inhibition in assay [1] was -4% and -10%; in assay [2] it was 32%; in assay [3], 18% and 19%.
On to `CN(c1ccc(NC(=O)NCCN2CCOCC2)cc1)c1ccnc(Nc2ccc(CS(C)(=O)=O)cc2)n1`, for which the inhibition is 2% and -2% in assay [1]; 101% in assay [2]; 3% and 2% in assay [3].
`CN1CCC(C(=O)Nc2n[nH]c3nnc(-c4ccccc4)cc23)CC1`: the inhibition in assay [1] was -4%; in assay [2] it was 1%; in assay [3], -3% and -7%.
Take `CNC(=O)c1ncccc1Nc1nc(Nc2cc3c(cc2OC)CCCN3C(=O)CN(C)C)nc2[nH]ccc12`: the inhibition in assay [1] is -5% and -3%; in assay [2] it was 77%; in assay [3], 8% and 12%.
As to `COc1cccc(-n2nc(C)c3c(N/N=C(\C)c4ccncc4)ncnc32)c1`, the inhibition in assay [1] was -3%; in assay [2] it was -8%; in assay [3], 4% and 2%.
As to `NS(=O)(=O)c1ccc(N/N=C2\C(=O)Nc3ccc(C(=O)NCCCn4ccnc4)cc32)cc1`, the inhibition was -1% in assay [1]; -4% in assay [2]; 42% and 41% in assay [3].
Take `O=C(O[C@H]1CN[C@H](C#Cc2cc3ncnc(Nc4ccc5c(cnn5Cc5ccccc5)c4)c3s2)C1)N1CCOCC1`: the inhibition in assay [1] is -4% and -7%; in assay [2] it was 15%; in assay [3], 26% and 31%.
Regarding `COC(=O)c1ccc2c(c1)C(=Cc1cc(Br)c(O)c(Br)c1)C(=O)N2`, the inhibition in assay [1] was 0% and -2%; in assay [2] it was 5%; in assay [3], 36%.
Consider `Fc1cccc(COc2ccc(Nc3ncncc3C#Cc3ccccc3)cc2Cl)c1`, for which the inhibition was -6% and -3% in assay [1]; -5% in assay [2]; -6% and -7% in assay [3].
